From patent US20210030022A1, “NOVEL USE OF SUBSTITUTED CHROMAN-6-OLS” (DSM IP ASSETS B.V., priority 2018, published 2021)
“Also recorded” adds a separate entry of the source. Blank lines part the entries; values can stand above or below the compound they belong to.

Tests used:
[1] = Oxipres antioxidant efficacy value (EV) in poultry meal; settings: Oxipres 70° C., 5 bar O2, equimolar to BHT; EV relative to BHT (EV=1)
Experimental: (§1) Oxidative stability was assessed using an Oxipres (Mikrolab Aarhus A/S, Hojbjerg, Denmark). The ML OXIPRES® is designed to monitor the oxidation of heterogeneous products. Consumption of oxygen results in a pressure drop which is measured by means of pressure transducers. The samples are heated to accelerate the process and shorten the analysis time (Mikrolab Aarhus 2012).
(§2) Sample weights were 50 g. They were loaded into the Oxipres vessels and placed inside the stainless-steel pressure vessel and sealed. The pressure vessels were purged with pure oxygen and filled to an initial oxygen pressure of 5 bar and maintained at 70° C. during measurement (D. Ying, L. Edin, L. Cheng, L. Sanguansri, M. A. Augustin, LWT—Food Science and Technology 2015, 62, 1105-1111: “Enhanced oxidative stability of extruded product containing polyunsaturated oils.”).
(§3) The oxygen pressure was recorded as function of time. After sample load and temperature rise the pressure in the device is increasing within 10 hours up to the starting pressure. Thereafter it is decreasing. Consequently, the starting pressure is considered as being the pressure after 10 hours. The analysis ends after 130 hours at 70° C. The oxygen consumption ‘O2’ of the tested sample is calculated as follows: […]
(§4) A factor of protection called ‘EV’ (Efficacy Value) was developed to quantify with a relative number (relative to BHT) the antioxidant effect of the tested candidates. EV was calculated as follows:
(§5) EV, being relative to BHT (3,5-di-tert-butyl-4-hydroxy-toluene) (EV=1), makes it possible to compare the antioxidant compounds in a defined feed application.
(§6) Each of the compounds of formulae (1) to (6) were mixed into each matrix 1, 2 or 3 (pet food, poultry meal, fish meal) in an equimolar ratio compared to BHT. Batches of 200 g feed were produced in order to handle a minimum of 30 mg of antioxidant. First, a 1% pre-dilution of the antioxidant with the feed material was made. Then this pre-dilution was added to the final batch, mixed, sieved (1.25 mm sieve) and mixed using a turbula mixer. Thereafter 55 g of the final batch were packed into polyethylene bags, and stored at 4° C. until start of the Oxipres assay. Spare sample were stored at 4° C. Compound of formula (3) was measured in all three matrices. Compound of formula (1) was measured in matrix 1 and 2. Compound of formula (2) was measured in matrix 2. Compounds of formulae (4), (5) and (6) were measured in matrix 3. An efficacy value 0.7 has been considered as acceptable, an efficacy value ≥ the efficacy value of alpha-tocopherol as good, and an efficacy value ≥ the efficacy value of BHT as very good.

[2] = Oxipres antioxidant efficacy value (EV) in pet food; settings: Oxipres 70° C., 5 bar O2, equimolar to BHT; EV relative to BHT (EV=1)
Experimental: as §1, §2, §3, §4, §5, §6

[3] = Oxipres antioxidant efficacy value (EV) in fish meal; settings: Oxipres 70° C., 5 bar O2, equimolar to BHT; EV relative to BHT (EV=1)
Experimental: as §1, §2, §3, §4, §5, §6

Solubility in fish oil = assay type: physicochemical; settings: fish oil, 0.5 and 2 mg/g; mixed around 40° C. to dissolve completely
Experimental: The compounds of formulae (4), (6), (8) and (9) were evaluated primarily for their oxidative stability by the Oil Stability Index (OSI) measurements. Two different levels of these antioxidants (0.5 and 2 mg/g) were used in 5 g of natural fish oil (Product code: FG30TG) and used in the Oxidative Stability Instrument at 80° C. with the air flow rate of 40 psi. The solubility of different amounts and types of antioxidants used in OSI was checked before and after the application. […]

[4] = Oil Stability Index (OSI) in fish oil, Example 13; settings: for OSI: Table 28, FG30TG fish oil, 80° C.; for Protection Factor (%): Table 34, fish oil (80° C.)
Experimental: The compounds of formulae (3) and (7) were used in both fish and algal oils to see their antioxidant effect in these oils. Antioxidant effect was determined using mainly the Oil Stability Index (OSI). Two concentration levels were used: 0.5 mg/g (low level) and 2 mg/g (high level), respectively, have been added to 5 g of oil and used in the Oxidative Stability Instrument operated at 80° C. with the continuous air flow rate at ˜40 psi. All samples were run in duplicate. The Protection Factors (PF) for each compound, as percentage, in oil were calculated as, [formula]

[5] = Storage stability in fish oil (PV, p-AV), Example 13; settings: for Peroxide values (PV, meq/kg) / p-Anisidine value (p-AV): storage at 25° C.
Experimental: A storage stability study was performed to compare the variation of primary oxidation products, the hydroperoxides, generated during oxidation, measured in terms of peroxide value (PV) and the secondary oxidation products which were measured and determined as anisidine reactive substances or p-anisidine value (p-AV) of oil samples containing these compounds.
The two different concentrations of compounds of formulae (3) and (7) were used for the storage stability study. Each compound and MNT were added, each individually, to 40 g of fish oil samples in 60 ml amber bottles at 0.5 mg/g and 2 mg/g levels, thoroughly mixed and stored at ambient temperature for 19 days. All sample bottles were stored open to air, away from light. […] Peroxide values (PV) and p-anisidine values (p-AV) were determined at different times for 19 days.

[6] = Oil Stability Index (OSI) in crude algal oil, Example 13; settings: for OSI: Table 33, crude algal oil (contained about 1.6 mg/g MNT prior to use), 80° C.; for Protection Factor (%): Table 35, crude algal oil (80° C.)
Experimental: The compounds of formulae (3) and (7) were used in both fish and algal oils to see their antioxidant effect in these oils. Antioxidant effect was determined using mainly the Oil Stability Index (OSI).
Two concentration levels were used: 0.5 mg/g (low level) and 2 mg/g (high level), respectively, have been added to 5 g of oil and used in the Oxidative Stability Instrument operated at 80° C. with the continuous air flow rate at ˜40 psi. All samples were run in duplicate. The Protection Factors (PF) for each compound, as percentage, in oil were calculated as,
The Oil Stability Indices (OSI) of crude algal oil with levels of 0.5 mg/g and 2 mg/g of compounds of formulae (3) or (7) are shown in Table 33.

SMILES: Cc1cc(C(C)(C)C)c(O)c(C(C)(C)C)c1 [BHT, 3,5-di-tert-butyl-4-hydroxy-toluene, reference compound]
EV in poultry meal [1]: 1 | EV in pet food [2]: 1 | EV in Fish meal [3]: 1

SMILES: Oc1ccc2c(c1)CCCO2 [Compound of formula (1), chroman-6-ol]
EV in poultry meal [1]: 1.12 | EV in pet food [2]: 0.98

Solubility in oil (Solubility in fish oil): not readily soluble in oil
SMILES: CC1(C)CCc2cc(O)ccc2O1 [Compound of formula (3), 2,2-dimethyl-chroman-6-ol]
EV in poultry meal [1]: 1.17 | EV in pet food [2]: 0.95 | EV in Fish meal [3]: 0.96 | OSI ([4]; 0.5 mg/g): 7.13 h | OSI ([4]; 2 mg/g): 7.48 h | Protection Factor (%) ([4]; 0.5 mg/g): 42.5% | Protection Factor (%) ([4]; 2 mg/g): 49.5% | antioxidant activity (OSI) in fish oil compared with MNT ([4]; fish oil, Example 13, 0.5 and 2 mg/g): slightly higher Oil Stability Indices than those of MNT; also recorded: comparable in activity with MNT | level of secondary oxidation products (p-AV) during storage ([5]; 0.5 mg/g concentration): lowest level of secondary oxidation products (p-AV) | Peroxide values (PV, meq/kg) ([5]; 0.5 mg/g level, 1 day): 1 meq/kg | p-Anisidine value (p-AV) ([5]; 0.5 mg/g level, 1 day): 9.5 | Peroxide values (PV, meq/kg) ([5]; 0.5 mg/g level, 5 days): 2 meq/kg | p-Anisidine value (p-AV) ([5]; 0.5 mg/g level, 5 days): 9.5 | Peroxide values (PV, meq/kg) ([5]; 0.5 mg/g level, 8 days): 6.4 meq/kg | p-Anisidine value (p-AV) ([5]; 0.5 mg/g level, 8 days): 11.2 | Peroxide values (PV, meq/kg) ([5]; 0.5 mg/g level, 14 days): 12.8 meq/kg | p-Anisidine value (p-AV) ([5]; 0.5 mg/g level, 14 days): 11.4 | Peroxide values (PV, meq/kg) ([5]; 0.5 mg/g level, 19 days): 20.9 meq/kg | p-Anisidine value (p-AV) ([5]; 0.5 mg/g level, 19 days): 12.8 | Peroxide values (PV, meq/kg) ([5]; 0.5 mg/g level, Initial): 1 meq/kg | p-Anisidine value (p-AV) ([5]; 0.5 mg/g level, Initial): 9.4 | Peroxide values (PV, meq/kg) ([5]; 2 mg/g level, 1 day): 1 meq/kg | p-Anisidine value (p-AV) ([5]; 2 mg/g level, 1 day): 9.4 | Peroxide values (PV, meq/kg) ([5]; 2 mg/g level, 5 days): 1.9 meq/kg | p-Anisidine value (p-AV) ([5]; 2 mg/g level, 5 days): 9.3 | Peroxide values (PV, meq/kg) ([5]; 2 mg/g level, 8 days): 6.4 meq/kg | p-Anisidine value (p-AV) ([5]; 2 mg/g level, 8 days): 10.8 | Peroxide values (PV, meq/kg) ([5]; 2 mg/g level, 14 days): 14.1 meq/kg | p-Anisidine value (p-AV) ([5]; 2 mg/g level, 14 days): 11.2 | Peroxide values (PV, meq/kg) ([5]; 2 mg/g level, 19 days): 26.8 meq/kg | p-Anisidine value (p-AV) ([5]; 2 mg/g level, 19 days): 11.8 | Peroxide values (PV, meq/kg) ([5]; 2 mg/g level, Initial): 1 meq/kg | p-Anisidine value (p-AV) ([5]; 2 mg/g level, Initial): 9.4 | OSI ([6]; 0.5 mg/g): 17.05 h | OSI ([6]; 2 mg/g): 18.63 h | Protection Factor (%) ([6]; 0.5 mg/g): 13.7% | Protection Factor (%) ([6]; 2 mg/g): 24.2%

SMILES: Cc1c(C)c2c(c(C)c1O)CC[C@@](C)(CCC[C@H](C)CCC[C@H](C)CCCC(C)C)O2 [alpha-tocopherol, reference compound]
EV in poultry meal [1]: 0.74 | EV in pet food [2]: 0.77 | EV in Fish meal [3]: 0.88
